From the NIST ThermoML archive (doi:10.1021/acs.jced.8b00120)
± gives the expanded uncertainty stated by the source.

Columns and labels:
[1] = refractive index (Na D-line) (dimensionless); settings: 298.15 K; 101.33 kPa; Liquid; Standard Abbe refractometry
[2] = 298.15 K; 101.33 kPa; Liquid; Buoyancy - hydrostatic balance

SMILES | refractive index [1] | mass density [2]
O [water] | 1.3324 ± 0.001 | 
CN(C)C=O [dimethylformamide] | 1.4279 ± 0.0011 | 944.689 ± 10 kg/m3
CC(C)c1ccccc1 [isopropylbenzene] | 1.4907 ± 0.0011 | 864.115 ± 10 kg/m3
CC#N [acetonitrile] | 1.3452 ± 0.001 | 785.712 ± 10 kg/m3
CC(=O)CC(C)C [4-methylpentan-2-one] | 1.3964 ± 0.0011 | 800.589 ± 10 kg/m3

Next, values leading:

refractive index [1] | mass density [2] | SMILES
1.3975 ± 0.0011 | 805.881 ± 10 kg/m3 | CCCCO [butan-1-ol]
1.3279 ± 0.0011 | 791.814 ± 10 kg/m3 | CO [methanol]
1.394 ± 0.0011 | 801.652 ± 10 kg/m3 | CC(C)CO [2-methyl-1-propanol]
